# Data reported in patent US8557823B2, “Family of PFKFB3 inhibitors with anti-neoplastic activities” (Advanced Cancer Therapeutics, LLC, priority 2007, dated 2013).
# Tests used:
# [1] = Echocardiographic examination of cardiac function; assay type: in vivo; conditions: compound-treated mice, 0.07 mg/g i.p.
# Method: A difference in cardiac ^18F-2-DG uptake was also observed between the compound 1-treated and control group mice. Echocardiograms were performed as described in Dawn et al., Proc. Natl. Acad. Aci., U.S.A., 102, 3766-3771 (2005). […] Overall, it appears that 1 targets PFK2 activity in vivo resulting in a reduced glycolytic phenotype.
# Jurkat leukemia cells = experiment: In vitro growth inhibition, Jurkat; assay type: cell-based; conditions: Homo sapiens, 50% of vehicle control cell growth
# Method: (§1) The K562, HL-60, MDA-MB231, and melanoma (CRL-11174) human cancer cell lines were purchased from ATCC (American Tissue Type Culture Collection, Manassas, Va., United States of America). HeLa, A549, Lewis Lung Carcinoma, MDA-MB231, and melanoma cells were grown in Dulbecco's Modified Eagle Medium (DMEM) (Hyclone, Logan, Utah, United States of America) supplemented with 10% fetal bovine serum (Hyclone, Logan, Utah, United States of America) and 50 μg/mL gentamicin sulfate (Invitrogen, Carlsbad, Calif., United States of America). The HL-60, K562, and Jurkat cell lines were grown in RPMI-1640 medium (Hyclone, Logan, Utah, United States of America) supplemented with 10% fetal bovine serum and 50 μg/mL gentamicin sulfate. […]
# (§2) Cells were collected 48 hours post-treatment, and cell number and viability were determined by trypan blue exclusion. […]
# [2] = system: MDA-MB231 human breast adenocarcinoma tumors; experiment: MDA-MB231 breast adenocarcinoma xenografts in Balb/c nude mice; assay type: in vivo; conditions: 0.07 mg/g IP, three daily injections followed by three days off
# Method: FIG. 7B is a graph showing the effects of 3PO treatment on the growth of established MDA-MB231 breast adenocarcinoma tumor zenografts in Balb/c athymic mice. Tumors were measured daily using blunt end Vernier calipers, and mice with established tumors (130-190 mg) were blindly randomized into either a DMSO control group (•, n=14) or a 3PO treatment group (∘, n=13). Experimental mice were weighed and given intraperitoneal (i.p.) injections of either 50 μL DMSO or 0.07 mg/g 3PO in 50 μL DMSO according to a cyclical dosing regimen of three sequential daily injections followed by three off days for the duration of the study (14 days). Arrows (↓) represent control or 3PO administrations. […]
# Exponentially growing MDA-MB231 and HL-60 cells were collected in appropriate medium, washed twice and resuspended in PBS at a concentration of 20×10^7 cells/mL. […] Body weight and tumor growth were monitored daily throughout the study. Tumor masses were determined by measurement with Vernier calipers using the formula: mass (mg)=[width (mm^2)×length (mm)]/2. […]
# The first tumor model tested consisted of mouse Lewis Lung Carcinoma xenografts grown in C57/Blk6 mice. For this study, mice were given IP injections of either DMSO or the calculated dose of 1 once daily for the duration of the study (14 days). […]
# NHBE-ht/LT/ras cells = experiment: In vitro growth inhibition, transformed NHBE cells; assay type: cell-based, human
# Method: The K562, HL-60, MDA-MB231, and melanoma (CRL-11174) human cancer cell lines were purchased from ATCC (American Tissue Type Culture Collection, Manassas, Va., United States of America). HeLa, A549, Lewis Lung Carcinoma, MDA-MB231, and melanoma cells were grown in Dulbecco's Modified Eagle Medium (DMEM) (Hyclone, Logan, Utah, United States of America) supplemented with 10% fetal bovine serum (Hyclone, Logan, Utah, United States of America) and 50 μg/mL gentamicin sulfate (Invitrogen, Carlsbad, Calif., United States of America). The HL-60, K562, and Jurkat cell lines were grown in RPMI-1640 medium (Hyclone, Logan, Utah, United States of America) supplemented with 10% fetal bovine serum and 50 μg/mL gentamicin sulfate. The primary Normal Human Bronchial Epithelial (NHBE) cells and cells that were immortalized with human telomerase (ht) and large T antigen (LT) and transformed with mutated ras (ht/LT/ras cells) were cultured in Bronchial Epithelial Cell Basal Growth Medium (Cambrex, Walkersville, Md., United States of America) supplemented with 52 μg/mL bovine pituitary extract, 0.5 μg/mL hydrocortisone, […], 0.5 μg/mL epinephrine, 10 μg/mL transferrin, 5 μg/mL insulin, 0.1 ng/mL retinoic acid, 6.5 ng/mL triiodothyronine, 50 μg/mL gentamycin, and 50 ng/mL amphotericin-B (SingleQuots, Cambrex, Walkersville, Md., United States of America). All cell lines were maintained under 5% CO2 at 37° C.
# All cell lines were plated at 1×10^5 cells/well in the appropriate medium. For suspension cells, increasing concentrations of 1 were added immediately to the medium, whereas, compound 1 treatment was initiated the following day for adherent cell lines. For dose-dependent studies, compound 1 was added in increasing concentrations for 36 hours. For time-dependent studies, 10 μM of compound 1 was added at time 0, 4, 8, 16, 24, or 36 hours. […]
# as §2
# [3] = system: LLC (Lewis Lung Carcinoma) cells; experiment: In vitro growth inhibition, LLC; assay type: cell-based; conditions: mouse LLC
# Method: as §1, §2
# [4] = Toxicity studies, highest tolerated dose; assay type: in vivo, mice; conditions: intraperitoneal (IP) injection in DMSO
smiles,measurement,setting,value
"O=C(/C=C/c1cccnc1)c1ccncc1 [Compound 1, 3-(3-pyridinyl)-1-(4-pyridinyl)-2-propen-1-one]",ejection fraction,[1],71%±6%
same,IC50,Jurkat leukemia cells,1400 nM
same,maximum inhibition of xenograft growth compared to DMSO controls,[2],66%
same,IC50,"NHBE-ht/LT/ras cells; Homo sapiens, NHBE, 48 h",1500 nM
same,concentration at which treatment was completely cytotoxic,NHBE-ht/LT/ras cells; transformed NHBE cells,approximately 10 μM
same,concentration at which treatment was cytostatic,NHBE-ht/LT/ras cells; transformed NHBE cells,below 1 μM
same,IC50,[3],19000 nM
same,highest tolerated dose producing no phenotypic side effects,[4],0.07 mg/g
